Experimental findings from patent US11826344B2, “Composition, method of manufacture, and use of site-specific delivery of bruceolides for treatment of cancer and other diseases” (HOWARD UNIVERSITY, priority 2015, dated 2023) are described below.

Holding throughout (assay type): cell-based, human
Assay [1] relates to LNCaP cells. Briefly: Cell Titer 96 Non-Radioactive Cell Proliferation Assay, LNCaP cells, 120 h. As to conditions: 10-500 nM. As to the method:
(§1) The human prostate cancer cell lines, PC3 and LNCaP, were obtained from American Type Culture Collection (Manassas, VA). The PC3 and LNCaP cell lines were maintained in RPMI 1640 supplemented with 10% (v/v) FBS and 100 U/mL of penicillin G and 100 µg/mL of streptomycin sulfate. The cells were maintained as a monolayer in an incubator at 37° C. in a humid atmosphere with 5% CO2.
(§2) PC3 (seeding density of 3,000 cells per well) and LNCaP (seeding density of 6,000 cells per well) were seeded in 96-well plates and allowed to attach for 24 h. […] Cell viability was assessed at 120 h after treatment. The Cell Titer 96® Non-Radioactive Cell Proliferation Assay manufactured by Promega Corporation was employed for this study. Results are presented as percent viability normalized to controls and represent the mean±SD of six replicates per concentration tested. Results were analyzed using One-way Analysis of Variance (ANOVA) and Student's t-test with the aid of SPSS® statistical software. Differences were considered significant at p<0.05.
(§3) The toxicity of the brusatol-loaded nanoparticles in prostate cancer cell lines was evaluated over 120 hours using the Cell Titer 96® Non-Radioactive Cell Proliferation Assay (Promega Corp.). LNCaP cells are androgen receptor dependent while PC-3 cells are androgen independent. […]

Assay [2] concerns Prostate cancer lines PC3 and LNCaP. Briefly: Preliminary cytotoxicity study of brusatol solution on prostate cancer cell lines (FIG. 1). As to conditions: brusatol 1 nM to 10,000 nM, read from FIG. 1, read-out: IC50 (kills prostate cancer cells). The method, then:
as §1

For a further assay, the system named is PC3 cells. Kind of assay: Cell Titer 96 Non-Radioactive Cell Proliferation Assay, PC3 cells, 120 h. As to conditions: PC3, 10-500 nM. As to the method: as §1, §2, §3
Assay [3] relates to LNCaP cells. Kind of assay: Cell cycle analysis by propidium iodide flow cytometry. As to conditions: 50 nM brusatol, 120 h (day 5). The method, then: LNCaP cells (seeding density of 40,000 cells per well) were seeded in triplicates in a 24-well plate and incubated for 48 hours. […] The experiment was done in triplicate. At the 120 h time point, cells were harvested and washed twice with cold PBS, fixed in 70% ethanol for 1 h at 4° C. The cells were then washed twice with PBS, and treated with ribonuclease followed by staining with propidium iodide. The stained cells were subjected to cell cycle analysis using the BD Accuri™ C6 flow cytometer (BD Biosciences, Ann Arbor, MI, USA). For each replicate, 20,000 events were recorded.
A general note: A flow cytometer gives signals particle by particle.

For Brusatol, the “toxicity (in words)” value in the assay with LNCaP cells [1] and in the assay on PC3 cells was “dose-dependent toxicity” throughout. For the same substance, the IC50 in assay [2] was in the range of 1 to 100 nM. Also, the cell cycle effect entry in the assay on LNCaP cells [3] is given as “induces a G1 arrest”; in the assay with LNCaP cells [3] (listed as brusatol solution), “G1 arrest”.

The IC50 is the midpoint of a concentration-inhibition curve.
